From patent US20260038304A1, “METHOD AND SYSTEM FOR DETERMINING EFFICACY OF TREATMENT BY A PRE[…]” (priority 2023, published 2026)
Counter-ions that a name gives are not always drawn.

Assays:
Format in all cases: in vivo
larval zebrafish [1] = assay: Ketanserin bath application with or without psilocybin, independent component analysis of swim patterns; conditions: Ketanserin 11.25 μM for 5 hours
Protocol: The right panel of FIG. 4M depicts latent feature (e.g., independent component) analysis of swim patterns after the sham treatment, Ketanserin exposure and psilocybin pretreatment before Ketanserin exposure;
Ketanserin has acute anxiogenic effects in adult zebrafish and rodents.
For Ketanserin experiments (FIG. 4M), the inventors performed a bath application of Ketanserin (11.25 μM) for 5 hours before behavioral tests. Psilocybin (2.5 μM) was added to the solution 1 hour after the start of Ketanserin treatment for a total duration of 4 hours before behavioral tests. Ketanserin (Sigma, S006) was prepared as a 0.5 mg/mL stock solution in E3 medium. Stock solutions were stored at −80° C. for long-term storage, and in-use aliquots were stored at −20° C. The desired concentration of Ketanserin was achieved by adding the stock solution to the E3 medium in which the fish swim.
(§1) For Independent Component Analysis (ICA) (FIGS. 2D, 3G, 4D, 4K and 4L), The inventors identified ICA weights and normalization factors in the dataset of 14,694 swimming episodes from N=22 fish for the small arena and N=20 fish for the large arena (FIG. 1) by using FastICA function in scikit-learn package (https://scikit-learn.org). The inventors subsequently applied the same ICA weights and normalization factors to other datasets. […]

larval zebrafish [2] = assay: Wide-field behavioral tracking of spontaneous exploration and visually driven swimming after drug bath pretreatment; conditions: for effects of pretreatment on swim patterns: fluoxetine 1 μM to 10 μM, fluvoxamine 2.5 μM to 25 μM, 24 hours incubation; for swim patterns and tail motions during visually driven behaviors: fluoxetine- and fluvoxamine-treated fish vs control, FIG. 3K; for spontaneous swimming distance: unstressed fish, ketamine 30 μM bath 30 minutes, fluoxetine 4.6 μM bath 24 hours
Text: Reference is now made to FIG. 1A, which is a schematic diagram depicting an experimental setup, which may be used for evaluating behavior of an animal, according to some embodiments. […] This setup tracks the precise body kinematics of a single fish in an environment that is large (e.g., 90 mm) compared to the length of larval zebrafish (˜4 mm) at a high-resolution (e.g., higher than 1100×1100 pixels) and high-speed (e.g., 290 Hz). Data analysis pipelines further processed the images to identify the fish loci and body postures by using a deep neural network.
Different swim episodes can be visually separated in the depicted trajectories. Fish behavior was recorded at infrared wavelengths for 15 minutes while visual gratings stopped for 10 seconds (spontaneous swimming) and moved for 10 seconds (visually driven behavior) in cycles.
The inventors have used a custom-built zebrafish tracking system consisting of a high-speed camera, a macro lens and associated locking sleeve, an infrared filter for the lens, 880 nm LED illumination, a 100 mm×120 mm cold mirror, and a compact projector.
The inventors have tested the behavior of AB fish at the age of 5 Days Post Fertilization (DPF) on a chemical watch glass (125 mm) whose bottom surface was manually coated with a white spray. The inventors have imaged an area that spanned 90 mm (corresponding to 1100-1200 pixels) for each dimension with a resolution of […] per pixel at 290 Hz. […] Behavioral data presented in this study were acquired using at least three batches, as depicted in FIGS. 1, 2, 3, 4, 1SD, 2H, 2I, 2J, 3L, 4S, for at least two batches (FIG. 3J).
Until 5 DPF, both control and drug-exposed embryos were reared in 90-mm Petri dishes and maintained in a light-cycled incubator at 28.0° C. Media was changed every other day and no food was given before behavioral experiments. All behavioral experiments in this study were performed in E3 medium after washing out pretreated drugs.
Psilocybin solution (Sigma, P-097) was purchased as a stock solution concentration of 1.0 mg/mL in acetonitrile:water (1:1), ampule of 1 mL (3.52 mM). Stock solutions were stored at −80° C. for long-term storage, and in-use aliquots were stored at −20° C. Aliquots were thawed and vortexed immediately before use. Psilocybin was administered by incubating the fish in the psilocybin solution in 6-well plates. Desired concentrations of psilocybin were achieved by adding the stock solution to the E3 medium in which the fish swim. Concentrations ranging from 1 μM to 50 μM were tested in order to optimize the dosage.
The inventors determined that a dose of 2.5 μM for 4 h had the largest effect on spontaneous swimming compared to controls (refer to FIGS. 3E and 3J). Following the 4-hour exposure, fish were double washed in E3 medium, and remained in E3 medium until their behavior was examined. Behaviors were recorded for 15 minutes per fish.
Fluoxetine hydrochloride (Sigma, F918) was prepared as a 1 mg/ml (2.9 mM) stock solution in a conditioned E3 medium for zebrafish embryos. Fluvoxamine (Sigma, F2802) was prepared as a 10 mg/ml (23 mM) stock solution in a conditioned E3 medium. Desired Fluoxetine and Fluvoxamine concentrations were achieved by diluting the stock solution with conditioned E3 medium and storing the aliquots at −20° C. At 5 DPF, the fish were incubated as follows: Fluoxetine and Fluvoxamine were administered by incubating the fish in the solutions in 6-well plates. Desired concentrations of the two types of SSRIs were achieved by adding the stock solutions to the E3 medium in which the fish swim. Concentrations ranging from 1 μM to 10 μM for Fluoxetine and 2.5 μM to 25 μM for Fluvoxamine were tested in order to optimize the dosage. After 24 hours of incubation the fish, after being triple washed, were transferred to a new Petri dish, similar to the one they dwelled in before, containing only E3 medium. Behaviors were recorded at 6 DPF for 15 minutes per fish. […]

larval zebrafish [3] = assay: Acute cold stress exposure (28° C. to 18° C., 5 minutes) after drug pretreatment, swim pattern analysis; conditions: for stress-induced increase in swimming distance: cold shock, fluoxetine 4.6 μM 24 hours before; for stress-induced shift along the ICA2 (IC2) axis, turning/escape behavior: psilocybin 2.5 μM, ketamine 30 μM, fluoxetine 4.6 μM
Text: As known in the art, acute administration of psilocybin has anxiolytic effects in humans. The inventors have thus tested whether acute stress exposure causes changes in fish's swim patterns in our setup and whether psilocybin can prevent such stress-induced behavioral changes. Various environmental stressors have been tested in larval zebrafish that trigger cortisol increase, including hypertonic water, acids, mechanical disturbance, social isolation, and heating or cooling shock.
As shown in FIG. 4I-E, the inventors also tested the effect of hypertonic stress for comparison.
The behavioral effects of other antidepressants was investigated and compared with those of psilocybin. Initially, the effect of ketamine was tested. Ketamine is a fast-acting antidepressant that can also suppress stress-induced behavioral changes in zebrafish. Sub-anesthetic concentration (30 μM) were used and bath application were performed for 30 minutes before the cold shock (FIG. 5A).
The effect of fluoxetine was also tested in the cold shock paradigm, using a concentration of 4.6 μM from previous zebrafish studies, and the effect of bath application was examined for 24 hours before the cold shock (FIG. 5D). […] However, fluoxetine had mixed effects on body kinematics after stress exposure. […] These mixed effects may be due to the induction of distorted swim patterns by fluoxetine that were observed (FIG. 5F, FIG. S3C) but also may reflect its lack of acute anxiolytic effects in humans.
The inventors classified the effects of psilocybin, ketamine and fluoxetine based on two behavioral measures: changes in swimming distances (FIG. 5G) and the ICA analysis of body kinematics (FIG. 5H). In the first type of classification (FIG. 5G), the action of tested drugs was classified based solely on swimming distances. […] Anxiolytic effects were calculated based on how much the drugs could revert the increase of swimming distance induced by stress exposure. In the second type of classification (FIG. 5H), two dimensions identified by the ICA analysis of body kinematics were used. […] Anxiolytic effects were calculated based on how much the drugs could revert the changes along the IC2 axis induced by stress exposure.
Just as osmotic changes to the water cause stress to the fish, changes in water temperature are also known to induce stress. Zebrafish's optimal environment is approximately 28° C., and so it has been shown that a short exposure of 5 minutes to 18° C. leads to increased cortisol levels and anxiety-like behaviors in larval zebrafish. Thus, the inventors utilized this established stress paradigm and exposed the fish to 18° C. E3 medium for 5 minutes. The inventors subsequently returned the fish to 28° C. E3 for a 5-minute recovery before testing (FIG. 4A). 18° C. E3 was achieved by mixing 4° C. E3 with 28° C. E3. Over the course of the 5-minute cold stimulus, the water temperature on average ranged from 18° C. to 20° C. The recovery in 28° C. E3 was done in an incubator, thus the temperature remained stable. Note that these procedures involve multiple occasions of transferring fish and replacing liquid around the fish, which themselves cause stress response due to mechanical disturbances. The effect of such procedural stress was present as the shifts of behavioral states along the IC2 axis in the data presented in FIGS. 4 and S4 compared to other datasets.
as §1

[4] = cold stress, classification of psilocybin, ketamine and fluoxetine

Row | Compound | effects of pretreatment on swim patterns (larval zebrafish [2]) | swim patterns and tail motions during visually driven behaviors (larval zebrafish [2]) | spontaneous swimming distance (larval zebrafish [2]) | stress-induced increase in swimming distance (larval zebrafish [3]; ketamine 30 μM 30 minutes) | reversal of the stress-induced increases in swim distances (FIG. 5G) (larval zebrafish [3]; [4]) | stress-induced shift along the ICA2 (IC2) axis, turning/escape behavior (larval zebrafish [3]; cold stress) | also measured
1 | O=C(c1ccc(F)cc1)C1CCN(CCn2c(=O)[nH]c3ccccc3c2=O)CC1 [Ketanserin] |  |  |  |  |  |  | shift of behavioral states by bath application (larval zebrafish [1]): shifted behavioral states similarly to both cold and hypertonic stressors
2 | CNCCC(Oc1ccc(C(F)(F)F)cc1)c1ccccc1 (centres unmarked) [fluoxetine, Fluoxetine hydrochloride] | suppressive effects | noticeable distortions in the swim patterns and low-frequency tail motions | did not increase | reversed | only occurred with ketamine and fluoxetine | partially reversed and partially exacerbated | stimulatory/suppressive effects on basal behavior (larval zebrafish [2]; unstressed fish vs control, swimming distance and IC1 axis classifications consistent (FIG. 5G, 5H)): suppressive
3 | COCCCC/C(=N\OCCN)c1ccc(C(F)(F)F)cc1 [fluvoxamine, Fluvoxamine] | suppressive effects | decrease amplitude of tail motions |  |  |  |  | 
4 | CNC1(c2ccccc2Cl)CCCCC1=O (centres unmarked) [ketamine] |  |  | did not increase | reversed | only occurred with ketamine and fluoxetine | significantly reversed | reversal of the stress-induced changes in body kinematics (FIG. 5H) (larval zebrafish [3]; cold stress, IC2 axis, classification of psilocybin, ketamine and fluoxetine): only occurred with ketamine and psilocybin; stress-induced changes in swim patterns (zig-zag vs straight) during visually driven swimming (larval zebrafish [3]; cold stress, psilocybin 2.5 μM pretreatment, ketamine 30 μM 30 minutes): prevented the emergence of zig-zag swim patterns after cold shock and recovered straight swim patterns
5 | CN(C)CCc1c[nH]c2cccc(OP(=O)(O)O)c12 [psilocybin, Psilocybin] |  |  |  |  |  |  | most effective concentration for enhancing spontaneous exploration (larval zebrafish [2]; tested 1 μM to 50 μM, 30 minutes to 24 hours, optimal duration 4 h): 2.5 µM
